Data as given in PubChem BioAssay (NCI).
“And” between values parts separate entries of the source, which are not always exact repeats. Equal values may be shown once.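 Test compounds were applied to cells in 96-well plates for 48 hours at 5 doses. Here, GI50 denotes the concentration required for 50% inhibition of growth. The concentration for full growth arrest is given as TGI.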

Key:
Assay in all cases: NCI-60 cell line screen, 48 h
PC-3 prostate = tested on: PC-3 prostate
TK-10 renal = tested on: TK-10 renal
A498 renal = tested on: A498 renal
NCI/ADR-RES ovarian = tested on: NCI/ADR-RES ovarian
HCC-2998 colon = tested on: HCC-2998 colon
COLO 205 colon = tested on: COLO 205 colon
SF-268 CNS = tested on: SF-268 CNS
786-0 renal = tested on: 786-0 renal
SK-MEL-2 melanoma = tested on: SK-MEL-2 melanoma
HOP-92 NSCLC = tested on: HOP-92 NSCLC

Structure (SMILES)	GI50 (PC-3 prostate) [µM]	TGI (PC-3 prostate) [µM]	GI50 (TK-10 renal) [µM]	TGI (TK-10 renal) [µM]	GI50 (A498 renal) [µM]	TGI (A498 renal) [µM]	GI50 (NCI/ADR-RES ovarian)	TGI (NCI/ADR-RES ovarian)	GI50 (HCC-2998 colon) [µM]	TGI (HCC-2998 colon) [µM]	GI50 (COLO 205 colon)	TGI (COLO 205 colon)	GI50 (SF-268 CNS)	TGI (SF-268 CNS)	GI50 (786-0 renal) [µM]	TGI (786-0 renal) [µM]	GI50 (SK-MEL-2 melanoma) [µM]	TGI (SK-MEL-2 melanoma) [µM]	GI50 (HOP-92 NSCLC) [µM]	TGI (HOP-92 NSCLC) [µM]
CCCCCCCCCCCCCCCC[N+](C)(C)C	0.15	0.376	1.11	2.81	1.96	5.25	1.6 µM and 11.9 µM	6.53 µM and 31.6 µM	1.71	3.73	0.16 µM and 1.19 µM	0.295 µM and 2.75 µM	0.177 µM and 1.21 µM	0.483 µM and 3.12 µM	0.966	2.43	0.314	1.17	0.0918	0.353
Cc1cc2cc(Oc3ccnc(Nc4cccc(CS(=O)(=O)NCCN(C)C)c4)n3)ccc2[nH]1	3.38	13.2	12.5	25.3	1.04	4.19	17.9 µM	43.6 µM	11.6	25.2	4.47 µM	16.9 µM	3.93 µM	17.3 µM	4.46	17	11.5	25.7	1.78	5.68
CC(C)NCCCNC1=C(Cl)C(=O)c2ccccc2C1=O	3.92	20.7	22.7	38.8	12.2	25.1	12 µM	28.6 µM	2.14	4.49	1.87 µM	3.56 µM	4.42 µM	15.1 µM	18.1	33.5	13.5	30	14.6	31.2
COc1ccccc1NC(=O)N/C(N)=N/c1nc2ccccc2s1	0.0906	> 100		> 100	0.24	> 100	0.0474 µM		0.375	> 100	0.254 µM	> 100 µM		> 100 µM	0.288	> 100	0.446	> 100	> 23.4	> 100
COc1ccc(OC)c(-c2cn3nc(-c4c[nH]c5ccc(Br)cc45)sc3n2)c1	1.87	4.66	3.18	6.54	10.2	24.6	3.38 µM	10.9 µM	2.67	7.75			2.7 µM	7.6 µM	2.16	4.57	3.33	13.4	2.01	5.68
CCN(CCc1ccc(F)cc1)c1ccc(CO)c(Cl)c1	10.9	24.8	0.366	1.7	0.12	0.268	11.8 µM	28.1 µM	12.6	26.5	7.06 µM	21.5 µM	14.3 µM	28.6 µM	12.2	27	7.29	21.1	1.94	13.5
COc1cc(/C=C\c2cc(/C=C\c3ccc(O)c(OC)c3)n(C(=O)Nc3ccc(C(F)(F)F)cc3)n2)ccc1O	3.21	13.5	4.13	14.8	5.81	20.6	3.51 µM	> 100 µM	2.04	3.82	2.05 µM	4.5 µM	2.8 µM	15.4 µM	2.42	7.52	3.15	17.3	2.35	6.79
c1ccc(CN2CCC3(CC2)ONC2=NCCN23)cc1	49.5	> 100	72	> 100	> 100	> 100	18.2 µM	> 100 µM			50.4 µM	> 100 µM	89.8 µM	> 100 µM	42.6	> 100	> 100	> 100	29.3	59.1
N#C/C(=C/c1cccs1)c1cccs1	> 100	> 100	> 100	> 100	> 100	> 100	> 100 µM	> 100 µM	> 100	> 100	> 100 µM	> 100 µM	> 100 µM	> 100 µM	> 100	> 100	> 100	> 100	27.8	> 100
